From article PMC3577712 (PLoS ONE, 2013)
pEC50, pIC50: −log10 of the molar value.

Key:
[1] = system: influenza A/WSN/33 (H1N1); assay: microbe, parasite or virus in culture; assay type: cell-based; conditions: MDCK, read-out: EC50 for viral plaque formation
[2] = system: influenza A/Udorn/72 (H3N2); assay: microbe, parasite or virus in culture; assay type: cell-based; conditions: H3N2, MDCK, read-out: EC50 for viral plaque formation
[3] = target: N2 NA (Influenza A virus, UniProt P0DOF9); assay: biochemical
[4] = target: Bac-NA^WT (Influenza A virus, UniProt Q6DPL2); assay: biochemical
[5] = system: A/WSN/33 (H1N1); assay type: cell-based, influenza A virus
[6] = system: A/WSN/33; assay type: cell-based, influenza A virus
[7] = system: NA; conditions: cited from earlier work

Chain of Bac-NA^WT (Q6DPL2 63-449 limits assumed): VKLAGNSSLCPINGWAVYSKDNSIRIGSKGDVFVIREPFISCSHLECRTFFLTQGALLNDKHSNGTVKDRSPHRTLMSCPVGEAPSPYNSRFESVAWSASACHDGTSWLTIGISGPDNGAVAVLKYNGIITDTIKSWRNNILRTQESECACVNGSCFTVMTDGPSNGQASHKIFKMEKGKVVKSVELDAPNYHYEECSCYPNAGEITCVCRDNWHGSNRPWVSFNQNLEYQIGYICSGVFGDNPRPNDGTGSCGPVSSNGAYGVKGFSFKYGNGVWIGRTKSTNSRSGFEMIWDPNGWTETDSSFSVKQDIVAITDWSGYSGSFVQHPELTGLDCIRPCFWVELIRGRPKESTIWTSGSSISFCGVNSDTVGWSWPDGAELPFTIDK
Chain of N2 NA (P0DOF9 whole entry, looked up): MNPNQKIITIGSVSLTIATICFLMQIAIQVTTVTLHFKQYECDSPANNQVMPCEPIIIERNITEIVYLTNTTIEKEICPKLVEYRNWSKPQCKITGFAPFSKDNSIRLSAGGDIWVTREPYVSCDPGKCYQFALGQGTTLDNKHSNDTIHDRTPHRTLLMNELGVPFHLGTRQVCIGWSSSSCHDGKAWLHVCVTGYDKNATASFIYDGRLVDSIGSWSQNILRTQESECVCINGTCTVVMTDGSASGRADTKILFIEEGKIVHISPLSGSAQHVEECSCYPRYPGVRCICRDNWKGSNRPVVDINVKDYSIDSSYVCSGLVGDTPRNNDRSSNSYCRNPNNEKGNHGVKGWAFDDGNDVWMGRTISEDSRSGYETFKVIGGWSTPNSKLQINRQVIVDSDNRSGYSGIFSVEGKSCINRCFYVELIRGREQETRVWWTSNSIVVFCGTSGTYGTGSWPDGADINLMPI

Compound	pEC50 [1]	pEC50 [2]	pIC50 [3]	pIC50 [4]	Virus yields (fluorogenic signal of NA activity) [5]	Influenza-induced cytopathic effect [6]	pIC50 [7]
Nc1c(S(=O)(=O)O)cc(Nc2cccc(S(=O)(=O)CCOS(=O)(=O)O)c2)c2c1C(=O)c1ccccc1C2=O [RB19, Remazol Brilliant Blue R]	5.57	5.55	4.82	5.47	dramatically reduced virus yields	inhibits the influenza-induced cytopathic effect	
DANA							5.00
